# In US20050080076A1 (Xanodyne Pharmacal, Inc., priority 2003, published 2005):
# How the values were obtained:
# [1] = system: Primary human hepatocytes; assay: In vitro metabolism in primary human hepatocytes; format: in vitro ADME
# P-glycoprotein (p-gp) = target: T1, P-glycoprotein (p-gp) (Homo sapiens, UniProt P08183); assay: P-glycoprotein efflux in CACO-2 Model; format: in vitro ADME
# T1 construct: using a human colon carcinoma cell line (CACO-2 Model); endogenous in cells; host or cells: CACO-2 (human colon carcinoma cell line)
# T1 sequence (P08183 whole entry): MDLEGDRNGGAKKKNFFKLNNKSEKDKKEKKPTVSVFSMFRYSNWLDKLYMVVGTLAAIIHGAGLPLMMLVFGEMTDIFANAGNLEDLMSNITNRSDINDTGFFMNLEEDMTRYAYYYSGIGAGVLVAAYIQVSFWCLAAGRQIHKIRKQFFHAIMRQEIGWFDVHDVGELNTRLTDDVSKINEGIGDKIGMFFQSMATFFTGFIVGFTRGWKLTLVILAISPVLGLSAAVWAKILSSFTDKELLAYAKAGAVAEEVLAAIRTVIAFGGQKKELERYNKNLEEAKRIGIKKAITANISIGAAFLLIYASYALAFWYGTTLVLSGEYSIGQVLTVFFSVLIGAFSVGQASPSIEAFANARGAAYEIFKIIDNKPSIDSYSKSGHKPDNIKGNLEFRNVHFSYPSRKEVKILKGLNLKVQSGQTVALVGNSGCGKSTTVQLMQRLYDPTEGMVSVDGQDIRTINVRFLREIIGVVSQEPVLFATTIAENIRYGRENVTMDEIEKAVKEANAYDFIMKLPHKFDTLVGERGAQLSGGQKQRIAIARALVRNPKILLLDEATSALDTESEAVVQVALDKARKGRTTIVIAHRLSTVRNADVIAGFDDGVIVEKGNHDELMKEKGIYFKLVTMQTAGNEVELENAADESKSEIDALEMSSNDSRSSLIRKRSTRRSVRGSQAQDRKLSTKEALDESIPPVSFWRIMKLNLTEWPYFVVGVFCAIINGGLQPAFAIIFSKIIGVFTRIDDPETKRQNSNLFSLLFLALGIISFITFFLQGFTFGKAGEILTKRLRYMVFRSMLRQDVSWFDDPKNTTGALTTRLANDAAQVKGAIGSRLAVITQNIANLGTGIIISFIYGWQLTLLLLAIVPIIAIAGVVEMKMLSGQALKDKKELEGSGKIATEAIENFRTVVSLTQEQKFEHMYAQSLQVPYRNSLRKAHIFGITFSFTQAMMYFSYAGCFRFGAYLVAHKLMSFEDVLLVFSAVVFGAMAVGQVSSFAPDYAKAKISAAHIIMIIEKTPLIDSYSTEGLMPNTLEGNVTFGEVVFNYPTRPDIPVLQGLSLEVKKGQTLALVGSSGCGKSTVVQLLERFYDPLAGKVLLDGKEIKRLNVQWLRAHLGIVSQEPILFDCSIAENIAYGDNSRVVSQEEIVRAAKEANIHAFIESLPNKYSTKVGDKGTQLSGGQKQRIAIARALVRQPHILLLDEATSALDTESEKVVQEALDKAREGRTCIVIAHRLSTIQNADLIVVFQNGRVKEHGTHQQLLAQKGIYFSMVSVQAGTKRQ
# Adrenergic α1C = Adrenergic α1C (Homo sapiens, UniProt P35348); assay: Receptor binding, Adrenergic α1C
# Sequence of Adrenergic α1C (P35348 whole entry): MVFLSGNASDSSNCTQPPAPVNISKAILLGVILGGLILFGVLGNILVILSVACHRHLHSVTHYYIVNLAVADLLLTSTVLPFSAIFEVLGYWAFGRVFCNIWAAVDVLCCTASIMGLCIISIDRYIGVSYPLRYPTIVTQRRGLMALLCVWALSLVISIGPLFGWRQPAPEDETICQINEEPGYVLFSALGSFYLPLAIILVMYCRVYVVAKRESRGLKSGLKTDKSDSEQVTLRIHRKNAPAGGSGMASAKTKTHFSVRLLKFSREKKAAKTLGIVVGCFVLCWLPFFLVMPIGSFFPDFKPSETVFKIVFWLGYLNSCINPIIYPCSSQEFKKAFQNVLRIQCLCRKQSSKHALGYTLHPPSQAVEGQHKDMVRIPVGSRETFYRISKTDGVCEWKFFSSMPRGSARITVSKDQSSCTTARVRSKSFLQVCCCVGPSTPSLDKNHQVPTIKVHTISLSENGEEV
# Description: Receptor-ligand binding studies were performed as known to one skilled in the art. […] Binding to the histamine H1 receptor, the calcium ion channel receptor, and the sodium ion channel receptor were also evaluated. […] Sulfoxide indicates the sulfoxide metabolite. […] Ki (the inhibition constants of binding) indicate binding affinity.
transport by P-glycoprotein relative to parent LMP (P-glycoprotein (p-gp)),inhibition of efflux relative to parent LMP (P-glycoprotein (p-gp); in the presence of p-gp inhibitor verapamil),"relative efflux to influx ratio, reduction versus parent LMP (P-glycoprotein (p-gp); through the enterocyte, less than parent LMP)",Structure (SMILES),Phase I biotransformation [1],Phase II biotransformation (conjugation) [1],metabolic stability relative to LMP [1],sulfoxide metabolite formation [1],Ki (Adrenergic α1C) [nM]
to a lesser degree than the parent LMP,at least one-half lower,at least 50%,"CNCC(C)CN1c2ccccc2Sc2ccc(OC)cc21 (stereo not drawn) [NDM LMP, R(+) 2-methoxy-10-2-methyl-3-monomethylaminopropyl phenothiazine]",metabolized to only one putative primary amine metabolite,did not appear to undergo any Phase II biotransformation,much more metabolically stable than its LMP parent compound,no detectable sulfoxide metabolites were formed,–
–,–,–,"COc1ccc2c(c1)N(C[C@H](C)CN(C)C)c1ccccc1[S+]2[O-] (some centres unmarked) [Sulfoxide, levomepromazine sulfoxide]",–,–,–,–,193
